Experimental findings from ChEMBL document CHEMBL5500376, “Novel pyxinol amide derivatives bearing an aliphatic heterocycle as P-glycoprotein modulators for overcoming multidrug resistance” (Eur J Med Chem, 2024) are described below.

The target of series [1] is T1, ATP-dependent translocase ABCB1 (Homo sapiens, UniProt P08183). Description: Inhibition of P-gp-mediated rhodamine-123 efflux in human KVB cells assessed as increase in intracellular Rhodamine-123 accumulation incubated for 30 mins by flow cytometry. Particulars: kbv, 0.5 h, at 2.5 to 10 µM, dose 2.5-10 µM. The series is classed as cell-based. In general terms: Flow cytometry measures light scatter and fluorescence of single cells or particles in a stream.
T1 sequence (P08183 whole entry): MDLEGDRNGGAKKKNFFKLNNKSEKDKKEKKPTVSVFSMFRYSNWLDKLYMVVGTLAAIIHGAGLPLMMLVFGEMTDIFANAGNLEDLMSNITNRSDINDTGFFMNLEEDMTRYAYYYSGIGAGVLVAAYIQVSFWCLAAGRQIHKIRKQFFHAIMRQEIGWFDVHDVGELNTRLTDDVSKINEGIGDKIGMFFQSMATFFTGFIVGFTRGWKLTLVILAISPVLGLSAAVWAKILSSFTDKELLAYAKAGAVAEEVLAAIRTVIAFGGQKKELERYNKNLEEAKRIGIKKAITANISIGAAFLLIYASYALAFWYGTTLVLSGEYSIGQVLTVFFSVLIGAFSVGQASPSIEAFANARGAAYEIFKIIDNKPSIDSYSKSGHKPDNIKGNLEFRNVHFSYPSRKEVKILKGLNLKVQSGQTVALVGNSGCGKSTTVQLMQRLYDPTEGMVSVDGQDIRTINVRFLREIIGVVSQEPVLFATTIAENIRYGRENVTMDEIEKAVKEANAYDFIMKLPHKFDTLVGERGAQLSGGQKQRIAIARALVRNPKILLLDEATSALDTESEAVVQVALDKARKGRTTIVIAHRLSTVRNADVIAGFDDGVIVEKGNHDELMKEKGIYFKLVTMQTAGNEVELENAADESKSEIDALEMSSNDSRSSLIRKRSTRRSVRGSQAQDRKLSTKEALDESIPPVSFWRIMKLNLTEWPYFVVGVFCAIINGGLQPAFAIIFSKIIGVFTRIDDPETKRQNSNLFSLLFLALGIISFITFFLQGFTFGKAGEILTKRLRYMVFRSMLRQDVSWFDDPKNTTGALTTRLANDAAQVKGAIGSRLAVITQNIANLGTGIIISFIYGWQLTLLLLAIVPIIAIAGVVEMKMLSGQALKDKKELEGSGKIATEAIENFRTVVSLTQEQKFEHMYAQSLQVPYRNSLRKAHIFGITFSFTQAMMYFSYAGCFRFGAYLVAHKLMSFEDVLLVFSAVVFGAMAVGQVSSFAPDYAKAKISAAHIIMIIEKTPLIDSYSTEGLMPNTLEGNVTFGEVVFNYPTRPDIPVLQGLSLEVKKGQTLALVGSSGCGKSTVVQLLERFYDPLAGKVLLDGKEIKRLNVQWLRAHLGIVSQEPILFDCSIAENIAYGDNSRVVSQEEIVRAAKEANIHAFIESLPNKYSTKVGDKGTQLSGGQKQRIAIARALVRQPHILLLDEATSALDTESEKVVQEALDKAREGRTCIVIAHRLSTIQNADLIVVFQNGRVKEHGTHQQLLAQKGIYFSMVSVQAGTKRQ

A short description of series [2]: Reversal fold, ratio of 5-fluorouracil IC50 to 5-fluorouracil IC50 in presence of test compound for reversal of multi-drug resistance in human KVB cells at 10 uM measured after 72 hrs by MTT assay. The series is classed as functional, KBV. On the technique in general: Tetrazolium assays rely on reduction of a dye to a coloured formazan, in cell work by metabolically active cells.

Series [3] is described as follows: Reversal fold, ratio of PTX IC50 to PTX IC50 in presence of test compound for reversal of multi-drug resistance in human KVB cells at 10 uM measured after 72 hrs by MTT assay. The series is classed as functional, KBV.
Series [4] has as its system KBV. Description: Reduction in P-gp protein level in human KVB cells at 10 uM measured upto 96 hrs incubation by Western blot analysis. The format is functional, cell-based.
Series [5] addresses T1, ATP-dependent translocase ABCB1. The series is described as follows: Thermal stabilization of P-gp in human KVB cells at 58 to 61 degreeC by CETSA assay. Conditions: kbv. The series is classed as cell-based.
The nature of series [6]: Cytotoxicity against human KBV cells assessed as cell survival at 10 uM measured after 72 hrs incubation by MTT assay relative to control. Conditions: read-out: Activity. The format is functional.
Series [7] has as its system KBV. The series is described as follows: Effect on P-gp sub-cellular localization in human KVB cells at 10 uM measured for 48 hrs incubation by immunofluorescence assay. The format is functional, cell-based.
The nature of series [8]: Cytotoxicity against HUVEC cells assessed as cell survival measured after 72 hrs incubation by MTT assay. The format is toxicity, cell-based. Particulars: human.
Series [9] has as its system KBV. Description: Potentiation of PTX-mediated inhibition of colony formation of human KVB cells assessed as reduction in colonies measured after 48 hrs by crystal violet staining based analysis. The series is classed as functional, cell-based. Particulars: dose […] µM.
A short description of series [10]: Reversal of multi-drug resistance in human KVB cells assessed as increase in PTX-induced cytotoxicity by measuring cell survival at 10 uM measured after 72 hrs incubation in presence of 100 nM paclitaxel by MTT assay relative to control. The series is classed as functional, KBV.
A short description of series [11]: Reversal fold, ratio of ADR IC50 to ADR IC50 in presence of test compound for reversal of multi-drug resistance in human KVB cells at 10 uM measured after 72 hrs by MTT. The format is functional, KBV.
Series [12] deals with T1, ATP-dependent translocase ABCB1. The series is described as follows: Inhibition of P-gp-mediated Ptx-C efflux in human KVB cells assessed as increase in fluorescence intensity incubated for 3 hrs by confocal microscopic analysis. The series is classed as cell-based. Conditions: kbv, at 2.5 to 10 µM, dose 2.5-10 µM.
Series [13] is described as follows: Cytotoxicity against human KBV cells assessed as cell survival measured after 72 hrs incubation by MTT assay. The series is classed as functional, cell-based.
Series [14] in a line: Reversal of multi-drug resistance in human KVB cells assessed as increase in PTX-induced cytotoxicity by measuring cell survival at 5 uM measured after 72 hrs incubation in presence of 100 nM paclitaxel by MTT assay relative to control. The format is functional, KBV.
Series [15] addresses T1, ATP-dependent translocase ABCB1. The series is described as follows: Substrate activity at Pgp in human KVB cells assessed as intracellular accumulation measured after 4 hrs by LC-MS/MS analysis. The series is classed as cell-based. Particulars: kbv.
Series [16] is described as follows: Reversal fold, ratio of cisplatin IC50 to cisplatin IC50 in presence of test compound for reversal of multi-drug resistance in human KVB cells at 5 uM measured after 72 hrs by MTT assay. The series is classed as functional, KBV.
Series [17] is described as follows: Reversal fold, ratio of 5-fluorouracil IC50 to 5-fluorouracil IC50 in presence of test compound for reversal of multi-drug resistance in human KVB cells at 5 uM measured after 72 hrs by MTT assay. The series is classed as functional, KBV.
Series [18] can be described thus: Reversal fold, ratio of ADR IC50 to ADR IC50 in presence of test compound for reversal of multi-drug resistance in human KVB cells at 5 uM measured after 72 hrs by MTT. The series is classed as functional, KBV.
A short description of series [19]: Cytotoxicity against human HK-2 cells assessed as cell survival measured after 72 hrs incubation by MTT assay. Particulars: read-out: IC50. The series is classed as toxicity, cell-based.
The test system of series [20] is KBV. Description: Potentiation of PTX-mediated antimigratory activity against human KVB cells assessed as inhibition of cell migration at 2.5 to 10 uM and incubated for 24 hrs in presence of 50 nM by scratch wound healing assay. Particulars: dose 2.5-10 µM. The format is functional, cell-based.
Series [21] concerns the target T2, Broad substrate specificity ATP-binding cassette transporter ABCG2 (Homo sapiens, UniProt Q9UNQ0).
T2 sequence (Q9UNQ0 whole entry): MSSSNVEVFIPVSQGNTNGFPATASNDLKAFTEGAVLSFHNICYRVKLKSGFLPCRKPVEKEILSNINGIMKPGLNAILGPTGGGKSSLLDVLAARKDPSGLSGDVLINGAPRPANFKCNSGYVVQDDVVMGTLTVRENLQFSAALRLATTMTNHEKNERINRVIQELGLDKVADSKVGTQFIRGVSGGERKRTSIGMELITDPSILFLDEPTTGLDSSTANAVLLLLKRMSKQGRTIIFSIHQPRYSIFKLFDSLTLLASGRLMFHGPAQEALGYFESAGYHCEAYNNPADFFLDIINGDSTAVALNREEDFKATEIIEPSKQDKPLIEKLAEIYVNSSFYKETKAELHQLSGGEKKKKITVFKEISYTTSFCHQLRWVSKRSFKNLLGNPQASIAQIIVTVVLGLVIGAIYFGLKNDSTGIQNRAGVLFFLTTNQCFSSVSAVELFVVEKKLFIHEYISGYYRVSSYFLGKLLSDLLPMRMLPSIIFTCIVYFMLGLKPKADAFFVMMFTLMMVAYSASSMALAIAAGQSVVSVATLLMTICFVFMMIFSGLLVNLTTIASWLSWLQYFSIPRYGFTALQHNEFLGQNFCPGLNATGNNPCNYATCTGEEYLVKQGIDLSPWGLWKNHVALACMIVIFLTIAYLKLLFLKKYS
Description: Thermal stabilization of ABCG2 in human KVB cells by CETSA assay. Particulars: kbv. The series is classed as cell-based.

Series [22] can be described thus: Reversal fold, ratio of cisplatin IC50 to cisplatin IC50 in presence of test compound for reversal of multi-drug resistance in human KVB cells at 10 uM measured after 72 hrs by MTT assay. The format is functional, KBV.
The target in series [23] is Multidrug resistance-associated protein 1 (Homo sapiens, UniProt P33527). The series is described as follows: Thermal stabilization of ABCC1 in human KVB cells by CETSA assay. The series is classed as cell-based. Particulars: kbv.
Sequence of Multidrug resistance-associated protein 1 (P33527 whole entry): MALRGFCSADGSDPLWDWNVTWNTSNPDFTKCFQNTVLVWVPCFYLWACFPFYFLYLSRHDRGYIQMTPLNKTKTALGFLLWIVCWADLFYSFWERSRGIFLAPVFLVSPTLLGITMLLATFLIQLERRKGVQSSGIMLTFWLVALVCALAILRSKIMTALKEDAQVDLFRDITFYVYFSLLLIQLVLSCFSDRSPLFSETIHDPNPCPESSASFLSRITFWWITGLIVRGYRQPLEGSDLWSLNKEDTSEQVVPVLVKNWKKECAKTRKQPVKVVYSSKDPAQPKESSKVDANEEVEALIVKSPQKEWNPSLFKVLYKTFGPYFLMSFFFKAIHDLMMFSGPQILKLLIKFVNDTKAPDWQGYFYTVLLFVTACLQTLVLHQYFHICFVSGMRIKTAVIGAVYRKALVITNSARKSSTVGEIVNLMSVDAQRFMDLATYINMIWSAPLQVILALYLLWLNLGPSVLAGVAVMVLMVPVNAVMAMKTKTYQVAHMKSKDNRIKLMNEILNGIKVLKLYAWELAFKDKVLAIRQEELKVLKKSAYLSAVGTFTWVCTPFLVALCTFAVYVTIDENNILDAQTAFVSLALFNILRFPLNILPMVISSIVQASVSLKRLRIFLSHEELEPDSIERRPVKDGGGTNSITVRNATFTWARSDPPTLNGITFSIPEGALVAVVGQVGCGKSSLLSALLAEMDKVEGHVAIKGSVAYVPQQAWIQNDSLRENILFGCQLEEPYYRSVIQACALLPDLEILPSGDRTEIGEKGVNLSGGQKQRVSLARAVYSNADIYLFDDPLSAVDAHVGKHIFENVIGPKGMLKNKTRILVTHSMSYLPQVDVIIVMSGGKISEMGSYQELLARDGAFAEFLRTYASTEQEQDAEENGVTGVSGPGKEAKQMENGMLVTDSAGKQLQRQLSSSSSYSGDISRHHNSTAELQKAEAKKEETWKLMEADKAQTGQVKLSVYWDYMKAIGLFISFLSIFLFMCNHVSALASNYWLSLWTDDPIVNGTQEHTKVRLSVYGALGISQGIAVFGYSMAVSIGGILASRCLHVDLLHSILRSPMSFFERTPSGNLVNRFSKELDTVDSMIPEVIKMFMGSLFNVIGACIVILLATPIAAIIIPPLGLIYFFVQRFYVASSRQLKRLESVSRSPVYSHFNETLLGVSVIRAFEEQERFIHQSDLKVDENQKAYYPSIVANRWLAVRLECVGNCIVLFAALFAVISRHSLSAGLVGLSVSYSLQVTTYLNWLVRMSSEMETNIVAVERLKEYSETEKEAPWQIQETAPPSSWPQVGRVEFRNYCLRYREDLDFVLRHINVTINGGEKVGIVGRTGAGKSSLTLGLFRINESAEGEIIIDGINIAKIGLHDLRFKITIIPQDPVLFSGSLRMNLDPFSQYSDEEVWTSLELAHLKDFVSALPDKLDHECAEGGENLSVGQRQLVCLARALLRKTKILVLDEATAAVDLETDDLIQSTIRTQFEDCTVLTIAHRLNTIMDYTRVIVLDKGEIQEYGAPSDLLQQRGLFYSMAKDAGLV
A short description of series [24]: Reversal fold, ratio of PTX IC50 to PTX IC50 in presence of test compound for reversal of multi-drug resistance in human KVB cells at 5 uM measured after 72 hrs by MTT. The series is classed as functional, KBV.
Series [25] can be described thus: Cytotoxicity against human KBV cells assessed as cell survival at 5 uM measured after 72 hrs incubation by MTT assay relative to control. The series is classed as functional. Particulars: read-out: Activity.

Active and inactive are the calls of the source. The calls are words filed in the database; no cut-off is given here. Bounds are passed on as bounds.

As a reminder, the IC50 is the point on the concentration scale where inhibition reaches its midpoint. For the compound `CC(C)(C)OC(=O)N1CC(CC(=O)N[C@H]2CC[C@]3(C)[C@H]4C[C@@H](O)[C@@H]5[C@@H]([C@]6(C)CC[C@H](C(C)(C)O)O6)CC[C@@]5(C)[C@]4(C)CC[C@H]3C2(C)C)C1`, the “inhibition (INH)” value in series [1] and in series [12] was “Dose-Dependent Effect” throughout. For the same compound, the “Ratio IC50” value is 1.1 in [2]; 14.8 in [11]; 1 in series [16]; 1 in series [17]; 7.9 in [18]; 1 in [22]. For the same compound, the Ratio in [3] worked out at 211.8. In addition, the result in the series on KBV [4] and in the series with KBV [7] was inactive. Further, the Activity result in [5] is “Active”; with KBV [9], “Dose-Dependent Effect”; in [10], 23%; in series [14] it was 36%; in [15], “Active”; in series [21] it was “Not Active”. In [23], the Activity entry is given as “Not Active”. Moreover, the viability at 10 µM in series [6] was 92%. Further, the half-inhibitory concentration (IC50) at 72 h is above 100 µM in series [8] and 63.1 µM in series [19]. Besides, in series [13], the half-inhibitory concentration (IC50) amounted to 44.9 µM. Also, in the series on KBV [20], the result was Active.
For `CC(C)(O)[C@H]1CC[C@@](C)([C@H]2CC[C@]3(C)[C@@H]2[C@H](O)C[C@@H]2[C@@]4(C)CC[C@H](NC(=O)[C@@H]5CCCCN5)C(C)(C)[C@@H]4CC[C@]23C)O1`, the “Ratio IC50” value in series [24] was 116.7. Besides, the Activity in series [14] is reported as 41%; in series [15] it was “Active”. The viability at 5 µM in series [25] was 96%.
